Legend:
Type in all cases: functional
SK-MEL-28 [1] = experiment: Cytotoxicity against human SK-MEL-28 cells assessed as growth inhibition after 48 hrs by sulforhodamine B assay; settings: SK-MEL-28, 48 h
OVCAR-8 = experiment: Cytotoxicity against human OVCAR8 cells assessed as growth inhibition after 48 hrs by sulforhodamine B assay; settings: OVCAR-8, 48 h
ACHN [2] = experiment: Cytotoxicity against human ACHN cells assessed as growth inhibition after 48 hrs by sulforhodamine B assay
TK-10 = experiment: Cytotoxicity against human TK10 cells assessed as growth inhibition after 48 hrs by sulforhodamine B assay; settings: TK-10, 48 h
MDA-MB-468 [3] = experiment: Cytotoxicity against human MDA-MB-468 cells assessed as growth inhibition after 48 hrs by sulforhodamine B assay; settings: MDA-MB-468, 48 h
ACHN [4] = experiment: Cytotoxicity against human ACHN cells assessed as cell growth at 0.01 uM after 48 hrs by sulforhodamine B assay relative to control; settings: read-out: Activity
OVCAR-4 = experiment: Cytotoxicity against human OVCAR4 cells assessed as cell growth at 0.01 uM after 48 hrs by sulforhodamine B assay relative to control; settings: OVCAR-4, 48 h, read-out: Activity
OVCAR-3 = experiment: Cytotoxicity against human OVCAR3 cells assessed as cell growth at 0.01 uM after 48 hrs by sulforhodamine B assay relative to control; settings: OVCAR-3, 48 h, read-out: Activity
SK-MEL-28 [5] = experiment: Cytotoxicity against human SK-MEL-28 cells assessed as cell growth at 0.01 uM after 48 hrs by sulforhodamine B assay relative to control; settings: SK-MEL-28, 48 h, read-out: Activity
Malme-3M [6] = experiment: Cytotoxicity against human MALME-3M cells assessed as cell growth at 0.01 uM after 48 hrs by sulforhodamine B assay relative to control; settings: read-out: Activity
MDA-MB-468 [7] = experiment: Cytotoxicity against human MDA-MB-468 cells assessed as cell growth at 0.01 uM after 48 hrs by sulforhodamine B assay relative to control; settings: MDA-MB-468, 48 h, read-out: Activity
COLO 205 = experiment: Cytotoxicity against human COLO205 cells assessed as cell growth at 0.1 uM after 48 hrs by sulforhodamine B assay relative to control; settings: COLO 205, 48 h, read-out: Activity
SK-MEL-28 [8] = experiment: Cytotoxicity against human SK-MEL-28 cells assessed as cell growth at 0.1 uM after 48 hrs by sulforhodamine B assay relative to control; settings: SK-MEL-28, 48 h, read-out: Activity
RXF 393 = experiment: Cytotoxicity against human RXF393 cells assessed as cell growth at 0.1 uM after 48 hrs by sulforhodamine B assay relative to control; settings: RXF 393, 48 h, read-out: Activity
SR [9] = experiment: Cytotoxicity against human SR cells assessed as cell growth at 1 uM after 48 hrs by sulforhodamine B assay relative to control; settings: read-out: Activity
KM12 = experiment: Cytotoxicity against human KM12 cells assessed as cell growth at 1 uM after 48 hrs by sulforhodamine B assay relative to control; settings: KM12, 48 h, read-out: Activity
NCI/ADR-RES = experiment: Cytotoxicity against human NCI/ADR-RES cells assessed as cell growth at 1 uM after 48 hrs by sulforhodamine B assay relative to control; settings: read-out: Activity
MDA-MB-468 [10] = experiment: Cytotoxicity against human MDA-MB-468 cells assessed as cell growth at 1 uM after 48 hrs by sulforhodamine B assay relative to control; settings: MDA-MB-468, 48 h, read-out: Activity
HCT-116 = experiment: Cytotoxicity against human HCT116 cells assessed as cell growth at 10 uM after 48 hrs by sulforhodamine B assay relative to control; settings: HCT-116, 48 h, read-out: Activity
SF-539 = experiment: Cytotoxicity against human SF539 cells assessed as cell growth at 10 uM after 48 hrs by sulforhodamine B assay relative to control; settings: SF-539, 48 h, read-out: Activity
BT-549 = experiment: Cytotoxicity against human BT549 cells assessed as cell growth at 10 uM after 48 hrs by sulforhodamine B assay relative to control; settings: BT-549, 48 h, read-out: Activity
HL-60(TB) = experiment: Cytotoxicity against human HL-60(TB) cells assessed as cell growth at 100 uM after 48 hrs by sulforhodamine B assay relative to control; settings: HL-60, 48 h, read-out: Activity
MOLT-4 = experiment: Cytotoxicity against human MOLT4 cells assessed as cell growth at 100 uM after 48 hrs by sulforhodamine B assay relative to control; settings: MOLT-4, 48 h, read-out: Activity
RPMI-8226 = experiment: Cytotoxicity against human RPMI8226 cells assessed as cell growth at 100 uM after 48 hrs by sulforhodamine B assay relative to control; settings: RPMI-8226, 48 h, read-out: Activity
SR [11] = experiment: Cytotoxicity against human SR cells assessed as cell growth at 100 uM after 48 hrs by sulforhodamine B assay relative to control; settings: read-out: Activity
NCI-H226 = experiment: Cytotoxicity against human NCI-H226 cells assessed as cell growth at 100 uM after 48 hrs by sulforhodamine B assay relative to control; settings: NCI-H226, 48 h, read-out: Activity
NCI-H322M = experiment: Cytotoxicity against human NCI-H322M cells assessed as cell growth at 100 uM after 48 hrs by sulforhodamine B assay relative to control; settings: read-out: Activity
NCI-H460 = experiment: Cytotoxicity against human NCI-H460 cells assessed as cell growth at 100 uM after 48 hrs by sulforhodamine B assay relative to control; settings: NCI-H460, 48 h, read-out: Activity
SW-620 = experiment: Cytotoxicity against human SW620 cells assessed as cell growth at 100 uM after 48 hrs by sulforhodamine B assay relative to control; settings: SW-620, 48 h, read-out: Activity
U-251 = experiment: Cytotoxicity against human U251 cells assessed as cell growth at 100 uM after 48 hrs by sulforhodamine B assay relative to control; settings: U-251, 48 h, read-out: Activity
Malme-3M [12] = experiment: Cytotoxicity against human MALME-3M cells assessed as cell growth at 100 uM after 48 hrs by sulforhodamine B assay relative to control; settings: read-out: Activity
SK-MEL-28 [13] = experiment: Cytotoxicity against human SK-MEL-28 cells assessed as cell growth at 100 uM after 48 hrs by sulforhodamine B assay relative to control; settings: SK-MEL-28, 48 h, read-out: Activity
OVCAR-5 = experiment: Cytotoxicity against human OVCAR5 cells assessed as cell growth at 100 uM after 48 hrs by sulforhodamine B assay relative to control; settings: OVCAR-5, 48 h, read-out: Activity
SN12C = experiment: Cytotoxicity against human SN12C cells assessed as cell growth at 100 uM after 48 hrs by sulforhodamine B assay relative to control; settings: read-out: Activity
A549 = experiment: Cytotoxicity against human A549/ATCC cells assessed as cell growth at 10 uM after 48 hrs by sulforhodamine B assay relative to control; settings: A549, 48 h, read-out: Activity
ACHN [14] = experiment: Cytotoxicity against human ACHN cells assessed as cell growth at 100 uM after 48 hrs by sulforhodamine B assay relative to control; settings: read-out: Activity

COc1cc(-c2cc(/C=C/C(=O)c3ccc(F)c(F)c3)[nH]n2)cc(OC)c1OC
LC50 (SK-MEL-28 [1]): > 100 µM | TGI (SK-MEL-28 [1]): 28.2 µM | LC50 (OVCAR-8): > 100 µM | TGI (OVCAR-8): 17.3 µM | LC50 (ACHN [2]): > 100 µM | TGI (ACHN [2]): > 100 µM | LC50 (TK-10): > 100 µM | TGI (TK-10): 7.42 µM | GI50 (MDA-MB-468 [3]): 2.22 µM | LC50 (MDA-MB-468 [3]): > 100 µM | TGI (MDA-MB-468 [3]): 9.47 µM | growth at 0.01 µM (ACHN [4]): 102% | growth at 0.01 µM (OVCAR-4): 90% | growth at 0.01 µM (OVCAR-3): 102% | growth at 0.01 µM (SK-MEL-28 [5]): 102% | growth at 0.01 µM (Malme-3M [6]): 93% | growth at 0.01 µM (MDA-MB-468 [7]): 90% | growth at 0.1 µM (COLO 205): 98% | growth at 0.1 µM (SK-MEL-28 [8]): 102% | growth at 0.1 µM (RXF 393): 96% | growth at 1 µM (SR [9]): 84% | growth at 1 µM (KM12): 95% | growth at 1 µM (NCI/ADR-RES): 95% | growth at 1 µM (MDA-MB-468 [10]): 79% | growth at 10 µM (HCT-116): 9% | growth at 10 µM (SF-539): 21% | growth at 10 µM (BT-549): 23% | growth at 100 µM (HL-60(TB)): -49% | growth at 100 µM (MOLT-4): -14% | growth at 100 µM (RPMI-8226): -36% | growth at 100 µM (SR [11]): 8% | growth at 100 µM (NCI-H226): -65% | growth at 100 µM (NCI-H322M): 3% | growth at 100 µM (NCI-H460): -54% | growth at 100 µM (SW-620): 1% | growth at 100 µM (U-251): -29% | growth at 100 µM (Malme-3M [12]): -31% | growth at 100 µM (SK-MEL-28 [13]): -39% | growth at 100 µM (OVCAR-5): -24% | growth at 100 µM (SN12C): -22%

COc1cc(-c2cc(/C=C/C(=O)c3ccc4c(c3)OCO4)[nH]n2)cc(OC)c1OC
LC50 (SK-MEL-28 [1]): > 100 µM | TGI (SK-MEL-28 [1]): 7.34 µM | LC50 (OVCAR-8): > 100 µM | TGI (OVCAR-8): 11.1 µM | LC50 (ACHN [2]): 7.32 µM | TGI (ACHN [2]): 3.71 µM | LC50 (TK-10): > 100 µM | TGI (TK-10): 5.73 µM | GI50 (MDA-MB-468 [3]): 1.4 µM | LC50 (MDA-MB-468 [3]): 5.82 µM | TGI (MDA-MB-468 [3]): 2.86 µM | growth at 0.01 µM (ACHN [4]): 108% | growth at 0.01 µM (OVCAR-4): 91% | growth at 0.01 µM (OVCAR-3): 104% | growth at 0.01 µM (SK-MEL-28 [5]): 100% | growth at 0.01 µM (Malme-3M [6]): 93% | growth at 0.01 µM (MDA-MB-468 [7]): 90% | growth at 0.1 µM (COLO 205): 101% | growth at 0.1 µM (SK-MEL-28 [8]): 106% | growth at 0.1 µM (RXF 393): 89% | growth at 1 µM (SR [9]): 32% | growth at 1 µM (KM12): 89% | growth at 1 µM (NCI/ADR-RES): 96% | growth at 1 µM (MDA-MB-468 [10]): 74% | growth at 10 µM (A549): 26% | growth at 10 µM (HCT-116): -60% | growth at 10 µM (SF-539): -27% | growth at 10 µM (BT-549): -20% | growth at 100 µM (HL-60(TB)): -36% | growth at 100 µM (MOLT-4): -10% | growth at 100 µM (RPMI-8226): -37% | growth at 100 µM (SR [11]): 2% | growth at 100 µM (NCI-H322M): -9% | growth at 100 µM (NCI-H460): -34% | growth at 100 µM (SW-620): 1% | growth at 100 µM (U-251): -56% | growth at 100 µM (Malme-3M [12]): -56% | growth at 100 µM (SK-MEL-28 [13]): -16% | growth at 100 µM (ACHN [14]): -69% | growth at 100 µM (SN12C): 18%

COc1ccc(-c2cc(/C=C/C(=O)c3ccc(N)cc3)[nH]n2)cc1OC
GI50 (SK-MEL-28 [1]): 2.14 µM | LC50 (SK-MEL-28 [1]): 21.1 µM | TGI (SK-MEL-28 [1]): 5.66 µM | GI50 (OVCAR-8): 2.95 µM | LC50 (OVCAR-8): 39 µM | TGI (OVCAR-8): 10.5 µM | GI50 (ACHN [2]): 1.67 µM | LC50 (ACHN [2]): 6.48 µM | TGI (ACHN [2]): 3.29 µM | GI50 (TK-10): 1.09 µM | LC50 (TK-10): 48.7 µM | TGI (TK-10): 23 µM | GI50 (MDA-MB-468 [3]): 1.55 µM | LC50 (MDA-MB-468 [3]): 7.8 µM | TGI (MDA-MB-468 [3]): 3.48 µM | growth at 0.01 µM (ACHN [4]): 93% | growth at 0.01 µM (OVCAR-4): 85% | growth at 0.01 µM (OVCAR-3): 106% | growth at 0.01 µM (SK-MEL-28 [5]): 92% | growth at 0.01 µM (Malme-3M [6]): 104% | growth at 0.01 µM (MDA-MB-468 [7]): 94% | growth at 0.1 µM (COLO 205): 95% | growth at 0.1 µM (SK-MEL-28 [8]): 93% | growth at 0.1 µM (RXF 393): 92% | growth at 1 µM (SR [9]): 34% | growth at 1 µM (KM12): 88% | growth at 1 µM (NCI/ADR-RES): 99% | growth at 1 µM (MDA-MB-468 [10]): 77% | growth at 10 µM (HCT-116): -73% | growth at 10 µM (SF-539): -73% | growth at 10 µM (BT-549): -91% | growth at 100 µM (HL-60(TB)): 3% | growth at 100 µM (MOLT-4): -22% | growth at 100 µM (RPMI-8226): -40% | growth at 100 µM (SR [11]): -5% | growth at 100 µM (NCI-H226): -55% | growth at 100 µM (NCI-H322M): -88% | growth at 100 µM (NCI-H460): -76% | growth at 100 µM (SW-620): -53% | growth at 100 µM (U-251): -96% | growth at 100 µM (Malme-3M [12]): -75% | growth at 100 µM (SK-MEL-28 [13]): -93% | growth at 100 µM (OVCAR-5): -81% | growth at 100 µM (ACHN [14]): -95% | growth at 100 µM (SN12C): -90%
